The text below walks through data of patent US6861395B2, “Method and compositions for inhibiting the growth of microorganisms in metal working fluids” (Arch UK Biocides Limited, priority 2000, dated 2005).

For series [1], the system named is Yeast and Fungi (Fusarium solani, Penicillium sp., Acremonium strictum, Geotrichum candidum). Description: Microbial resistance test based on ASTM E686-91, fungal contamination in semi synthetic metal working fluid. As to all read-outs here: key: +++ indicates confluent growth; ++ indicates moderate growth; + indicates slight growth; − indicates no growth. The class given is cell-based. Conditions: for Fungal Contamination after (days) 10: 10 days; for Fungal Contamination after (days) 31: 31 days; for Fungal Contamination after (days) 87: 87 days; for Fungal Contamination after (days) 110: 110 days. The procedure: (§1) The following microbial strains were studied:
(§2) The biocides shown in Tables 4, 5 and 6 were added to the metal working fluid shown in each table and assessed for microbial resistance by a method based on ASTM E686-91: Standard Test Method for Evaluation of Antimicrobial Agents in Aqueous Metal Working Fluids as described below.
(§3) The metal working fluids used in the assessment were the same as those used in Examples 1 to 7.
(§4) Bacteria and fungi were gradually acclimatised to the metal working fluid. The organisms were grown up in biocide free metal working fluid (containing 50% (v/v) minimal broth) with aeration at 25° C. until microbial count reached 10^9 cfu/ml. Every 7 days each micro-organism was subcultured into 90 ml (10 ml inoculum) and re-incubated. Subculturing was done for a minimum of three cycles before use.
(§5) To 1I French square bottles, 900 ml of metal working fluid was added at use concentration (diluted to 5% with water of 125 ppm calcium hardness). 100 ml of inoculum was added and mixed (100 ml of total quantity was removed and discarded). The metal working fluid was allowed to sit undisturbed for 64 hours. The metal working fluid was mixed and sampled for microbiological testing.
(§6) Bacteria and fungi were enumerated by streaking an aliquot onto nutrient or malt agar as appropriate. The mixtures were aerated using capillary tubing to bubble air into the bottom of the bottle (introduced by means of a multi-valve air manifold). Antifoam was also added. After 5 days, the aeration was stopped and volume replaced with sterile distilled water. The mixture was allowed to sit for 64 hours and then mixed. 10 ml of inoculum was used to re-inoculate and all losses were replaced with Biocide containing metal working fluid. The pH of the metal working fluid was measured at start of test and every 7 days. […] Aeration was resumed and the regime repeated for a minimum of 6 weeks or until failure.

Series [2] relates to Fusarium solani (ATCC 58877/IMI 314228). Briefly: MIC by doubling dilution in microtitre plate. The class given is cell-based. Here is the method: The fungus Fusarium solani (ATCC 58877/IMI 314228) was grown in malt agar for 7-14 days at 25° C. to give a mycelial mat and the spores harvested from the surface using physiological saline to give a suspension containing about 10^6 fungal spores/ml. This was then diluted with malt broth to give a spore suspension containing 10^4 spores/ml. A 100 μl aliquot of this spore suspension was added to each well of a microtitre plate except for the first well which contained 180 μl.
A 20 μl aliquot of this solution was added to the first well of the microtitre plate and thoroughly mixed. 100 μl was withdrawn from the first well, added to the second well and mixed.

Series [3] has as its system Yeast and Fungi (Fusarium solani, Penicillium sp., Acremonium strictum, Geotrichum candidum). Description: Microbial resistance test based on ASTM E686-91, fungal contamination in synthetic metal working fluid. As to all read-outs here: key: +++ indicates confluent growth; ++ indicates moderate growth; + indicates slight growth; − indicates no growth. The class given is cell-based. Conditions: for Fungal Contamination after (days) 10: 10 days; for Fungal Contamination after (days) 31: 31 days; for Fungal Contamination after (days) 87: 87 days; for Fungal Contamination after (days) 110: 110 days. Here is the method: as §1, §2, §3, §4, §5, §6

Series [4] in a line: Temperature stability of biocide in semi-synthetic metal working fluid (storage at 50° C., HPLC). Conditions: Semi-synthetic metal working fluid Quaker fluid No. 12717. Here is the method:
The biocides shown in Table 1 were added to Trim C111A (ex. Master Chemical Corporation, USA, a synthetic water miscible cutting and grinding fluid used as coolant and lubricant in metal removal processes). The initial concentration of the biocide in the metal working fluid is shown in the third column of Table 1. The metal working fluid was then stored at 50° C. for 45 days.
The concentration of biocide remaining after storage was measured using reverse phase high performance liquid chromatography (HPLC) after initial sample preparation. In the case of 2-n-butyl-benzisothiazolin-3-one, 2-n-octyl-isothiazolin-3-one and 3-iodo-2-propynyl-N-butylcarbamate sample preparation involved solvent extraction of the active from the metal working fluid. For sodium pyrithione, initial sample preparation was derivatisation to produce a compound readily detectable by HPLC.
The stability of the biocides shown in Tables 2 and 3 in semi-synthetic and soluble oil metal working fluids was assessed using the same method described above in Example 1.

The nature of series [5]: Temperature stability of biocide in soluble oil metal working fluid (storage at 50° C., HPLC).
The nature of series [6]: Temperature stability of biocide in synthetic metal working fluid (storage at 50° C., HPLC). As to conditions: Synthetic metal working fluid Trim C111A. The class given is physicochemical.
Method: The biocides shown in Table 1 were added to Trim C111A (ex. Master Chemical Corporation, USA, a synthetic water miscible cutting and grinding fluid used as coolant and lubricant in metal removal processes). […] The metal working fluid was then stored at 50° C. for 45 days.

Consider `CCCCn1sc2ccccc2c1=O` [BBIT, 2-n-butyl-1,2-benzisothiazolin-3-one], for which the “Fungal Contamination after (days) 10” value in series [1] (75 ppm), in series [1] (100 ppm), in series [1] (150 ppm), in series [3] (Conc. (a.i.) 75 ppm), in series [3] (Conc. (a.i.) 100 ppm) and in series [3] (Conc. (a.i.) 150 ppm) was “−” throughout. Moreover, the “Fungal Contamination after (days) 31” value in series [1] (75 ppm), in series [1] (100 ppm), in series [1] (150 ppm), in series [3] (Conc. (a.i.) 75 ppm), in series [3] (Conc. (a.i.) 100 ppm) and in series [3] (Conc. (a.i.) 150 ppm) was “−” each time. Further, the “Fungal Contamination after (days) 87” value in series [1] (75 ppm) is “+”; in series [1] (100 ppm), “−”; in series [1] (150 ppm), “−”; in series [3] (Conc. (a.i.) 75 ppm) it was “−”; in series [3] (Conc. (a.i.) 100 ppm), “−”; in series [3] (Conc. (a.i.) 150 ppm), “−”. In addition, the “Fungal Contamination after (days) 110” value is on record as “+” in series [1] (75 ppm); “−” in series [1] (100 ppm); “−” in series [1] (150 ppm); “−” in series [3] (Conc. (a.i.) 75 ppm); “−” in series [3] (Conc. (a.i.) 100 ppm); “−” in series [3] (Conc. (a.i.) 150 ppm). In series [2] (malt broth, visual inspection after 5 days at 25° C.), this molecule came in with an MIC values of 6.4 ppm.

In the case of `CCCCNC(=O)OCC#CI` [IPBC, 3-iodo-2-propynyl-N-n-butyl carbamate, reference compound], the “% Remaining after storage at 50° C. for 45 days” value (“% Remaining after storage” for short) in series [4] (initial concentration 5000 ppm) turned out to be 0%. In series [1] (75 ppm), the “Fungal Contamination after (days) 10” value is on record as “−”, the “Fungal Contamination after (days) 31” value is “−”, the “Fungal Contamination after (days) 87” value is on record as “−” and the “Fungal Contamination after (days) 110” value was “−”. Moreover, in series [5] (initial concentration 5000 ppm), the “% Remaining after storage” value worked out at 13%. For the same molecule, in series [3] (Conc. (a.i.) 75 ppm), the “Fungal Contamination after (days) 10” value was “−”, the “Fungal Contamination after (days) 31” value was “−”, the “Fungal Contamination after (days) 87” value is given as “−” and the “Fungal Contamination after (days) 110” value was “−”.

As for `CCCCCCCCn1sccc1=O` [OIT, 2-n-octyl-isothiazolin-3-one], the “% Remaining after storage” value in series [4] (initial concentration 2000 ppm) and in series [6] (initial concentration 2000 ppm) was 0% in each case.

Take `[Na].[O-][n+]1ccccc1S` [Sodium Omadine, sodium pyridine-2-thiol-1-oxide, reference compound]: the “% Remaining after storage” value in series [4] (initial concentration 2500 ppm), in series [5] (initial concentration 2500 ppm) and in series [6] (initial concentration 2500 ppm) was 0% each time. Moreover, the “Fungal Contamination after (days) 10” value was “−” in series [1] (150 ppm) and “++” in series [3] (Conc. (a.i.) 150 ppm). In addition, the “Fungal Contamination after (days) 31” value in series [1] (150 ppm) is “−”; in series [3] (Conc. (a.i.) 150 ppm) it was “+++”. Moreover, the “Fungal Contamination after (days) 87” value in series [1] (150 ppm) was “+”; in series [3] (Conc. (a.i.) 150 ppm), “+++”. Moreover, the “Fungal Contamination after (days) 110” value in series [1] (150 ppm) was “+”; in series [3] (Conc. (a.i.) 150 ppm), “+++”. For the same molecule, the MIC in series [2] (ATCC58877, 120 h, read-out: MIC values) stood at 18.5 µg/mL.
